Experimental data reported in PMC13509954 (Antioxidants, 2026).

Molecular target: lactoperoxidase (LPO) (Bos taurus, UniProt P80025)
Test: LPO inhibition, peroxidase selectivity profiling
Type: biochemical

`Cc1ccc2nc(-c3cccnc3)c(Nc3ccc4c(c3)OCO4)n2c1` [NE-2-6] and `Cc1ccn2c(Nc3ccc4c(c3)OCO4)c(-c3ccc(O)cc3)nc2c1` [NE-2-8] are within 1.5-fold of each other in IC50: 0.89 µM for the first, 1.05 µM for the second.

`COc1ccc(-c2nc3cc(C)ccn3c2Nc2ccc3c(c2)OCO3)cc1` [NE-2-7] was tested, and the IC50 was 2.25 µM.
